Measurements published in ChEMBL document CHEMBL4765295, “Synthesis, pharmacological profile and 2D-QSAR studies of curcumin-amino acid conjugates as potential drug candidates” (Eur J Med Chem, 2020).
Several values for one entry are separate records, joined by “and”; a condition that tells them apart may be missing. Equal entries are not always repeated.

Columns and labels:
Rattus norvegicus [1] = experiment: Antiinflammatory activity in Wistar rat model of carrageenan-induced paw edema assessed as reduction in thickness of paw edema at 10 mg/kg, ip pretreated for 1 hr followed by carrageenan challenge and measured after 24 hrs (reference value: 0.83 +/-0.08 mm); assay type: functional; conditions: time 25 hrs
Mus musculus [2] = experiment: Analgesic activity in albino mouse assessed as protection at 10 mg/kg, ip measured after 90 mins by hot plate test (reference value: 0 %); assay type: functional; conditions: 1.5 h
Peritoneal macrophage [3] = experiment: Antiinflammatory activity in […] mouse Peritoneal macrophages assessed as reduction in LPS-induced NO production by measuring reduction in stimulation index at 10 uM preincubated for 1 hr followed by LPS stimulation measured after 24 hrs by Griess method (reference value: 27.31 +/- 2.56 uM); assay type: functional; conditions: time 25 hrs
Staphylococcus aureus = experiment: Antibacterial activity against Staphylococcus aureus ATCC 25923 incubated for 18 hrs by agar dilution method; assay type: functional
Mus musculus [4] = experiment: Analgesic activity in albino mouse assessed as protection at 10 mg/kg, ip measured after 60 mins by hot plate test (reference value: 0 %); assay type: functional; conditions: 1 h
Rattus norvegicus [5] = experiment: Antiinflammatory activity in Wistar rat model of carrageenan-induced paw edema assessed as reduction in thickness of paw edema at 10 mg/kg, ip pretreated for 1 hr followed by carrageenan challenge and measured after 1 hr (reference value: 2.41 +/-0.05 mm); assay type: functional; conditions: time 1 hr after carrageenan
Mus musculus [6] = experiment: Analgesic activity in albino mouse assessed reduction in acetic acid-induced abdominal writhing by measuring writing reflex at 10 mg/kg, ip pretreated for 1 hr followed by acetic acid challenge and measured starting 5 mins post acetic acid challenge for 10 mins (reference value: 42.4 +/- 1.02); assay type: functional; conditions: time 75 min, 1.25 h
Splenocyte [7] = experiment: Immunomodulatory activity in Swiss albino mouse splenocytes assessed as cell viability at 10 uM by measuring inhibition of stimulation index incubated for 72 hrs in presence of mitogenic stimulus phytohaemagglutinin by MTT assay relative to indomethacin; assay type: functional; conditions: read-out: Activity
Peritoneal macrophage [8] = experiment: Antiinflammatory activity in […] mouse Peritoneal macrophages assessed as inhibition of LPS-induced NO production at 10 uM preincubated for 1 hr followed by LPS stimulation measured after 24 hrs by Griess method relative to control (reference value: 0.0 %); assay type: functional; parameters: scale not given: the % may be the effect or the level left; conditions: time 25 hrs
Mus musculus [9] = experiment: Analgesic activity in albino mouse assessed protection against acetic acid-induced abdominal writhing at 10 mg/kg, ip pretreated for 1 hr followed by acetic acid challenge and measured starting 5 mins post acetic acid challenge for 10 mins relative to indomethacin; assay type: functional; conditions: time 75 min, 1.25 h
Mus musculus [10] = experiment: Analgesic activity in albino mouse assessed as protection at 10 mg/kg, ip measured after 120 mins by hot plate test (reference value: 0 %); assay type: functional; conditions: 2 h
[11] = Ulcerogenic activity in fasted albino mouse assessed as incidence of gastric ulceration at 10 mg/kg, po for 3 days (reference value: 0 %); assay type: toxicity, organism-based; conditions: in vivo, 72 h, time 3 day
Rattus norvegicus [12] = experiment: Antiinflammatory activity in Wistar rat model of carrageenan-induced paw edema assessed as reduction in thickness of paw edema at 10 mg/kg, ip pretreated for 1 hr followed by carrageenan challenge and measured after 3 hrs (reference value: 1.79 +/-0.07 mm); assay type: functional; conditions: time 4 hrs
Splenocyte [13] = experiment: Immunomodulatory activity in Swiss albino mouse splenocytes assessed as cell viability at 10 uM by measuring stimulation index incubated for 72 hrs in presence of mitogenic stimulus phytohaemagglutinin by MTT assay (reference value: 1.00 +/- 0.24); assay type: functional
Mus musculus [14] = experiment: Analgesic activity in albino mouse assessed as forepaw licking/jumping latency time at 10 mg/kg, ip measured after 90 mins by hot plate test (reference value: 2.72 +/- 0.01 sec); assay type: functional; conditions: 1.5 h
Mus musculus [15] = experiment: Analgesic activity in albino mouse assessed as protection at 10 mg/kg, ip measured after 120 mins by hot plate test relative to indomethacin; assay type: functional; conditions: 2 h
Candida albicans = experiment: Antifungal activity against Candida albicans incubated for 18 to 24 hrs by CLSI method; assay type: functional; conditions: time 18-24 hrs
[16] = Toxicity in albino mouse assessed as induction of toxic symptoms at 50 to 100 mg/kg, ip measured after 24 hrs; assay type: organism-based; conditions: in vivo, dose 50-100 mg/kg
Mus musculus [17] = experiment: Analgesic activity in albino mouse assessed protection against acetic acid-induced abdominal writhing at 10 mg/kg, ip pretreated for 1 hr followed by acetic acid challenge and measured starting 5 mins post acetic acid challenge for 10 mins relative to control (reference value: 0 %); assay type: functional; conditions: time 75 min, 1.25 h
Mus musculus [18] = experiment: Analgesic activity in albino mouse assessed as forepaw licking/jumping latency time at 10 mg/kg, ip measured after 60 mins by hot plate test (reference value: 3.42 +/- 0.03 sec); assay type: functional; conditions: 1 h
Rattus norvegicus [19] = experiment: Anti-inflammatory activity in Wistar rat assessed as inhibition of carrageenan-induced paw edema at 10 mg/kg, ip pretreated for 1 hr followed by carrageenan challenge and measured after 2 hr relative to control (reference value: 0.00 +/-0.03 %); assay type: functional; conditions: time 3 hrs
Rattus norvegicus [20] = experiment: Anti-inflammatory activity in Wistar rat assessed as inhibition of carrageenan-induced paw edema at 10 mg/kg, ip pretreated for 1 hr followed by carrageenan challenge and measured after 24 hr relative to control (reference value: 0.00 +/-0.3 %); assay type: functional; conditions: time 25 hrs
[21] = Ulcerogenic activity in fasted albino mouse assessed as ulcer index in gastric mucosa at 10 mg/kg, po for 3 days (reference value: 0); assay type: toxicity, organism-based; conditions: in vivo, 72 h, time 3 day
Rattus norvegicus [22] = experiment: Anti-inflammatory activity in Wistar rat assessed as inhibition of carrageenan-induced paw edema at 10 mg/kg, ip pretreated for 1 hr followed by carrageenan challenge and measured after 3 hr relative to control (reference value: 0.00 +/-0.1 %); assay type: functional; conditions: time 4 hrs
Rattus norvegicus [23] = experiment: Anti-inflammatory activity in Wistar rat assessed as inhibition of carrageenan-induced paw edema at 10 mg/kg, ip pretreated for 1 hr followed by carrageenan challenge and measured after 4 hr relative to indomethacin; assay type: functional; conditions: time 5 hrs
[24] = Ulcerogenic activity in fasted albino mouse assessed as average number of ulcers in gastric mucosa at 10 mg/kg, po for 3 days (reference value: 0); assay type: toxicity, organism-based; conditions: in vivo, 72 h, time 3 day
Rattus norvegicus [25] = experiment: Anti-inflammatory activity in Wistar rat assessed as inhibition of carrageenan-induced paw edema at 10 mg/kg, ip pretreated for 1 hr followed by carrageenan challenge and measured after 1 hr relative to control (reference value: 0.00 +/-0.02 %); assay type: functional; conditions: time 2 hrs
Mus musculus [26] = experiment: Analgesic activity in albino mouse assessed as forepaw licking/jumping latency time at 10 mg/kg, ip measured after 120 mins by hot plate test (reference value: 2.62 +/- 0.06 sec); assay type: functional; conditions: 2 h
Mus musculus [27] = experiment: Analgesic activity in albino mouse assessed as protection at 10 mg/kg, ip measured after 30 mins by hot plate test (reference value: 0 %); assay type: functional; conditions: 0.5 h
Rattus norvegicus [28] = experiment: Anti-inflammatory activity in Wistar rat assessed as inhibition of carrageenan-induced paw edema at 10 mg/kg, ip pretreated for 1 hr followed by carrageenan challenge and measured after 4 hr relative to control (reference value: 0.00 +/-0.4 %); assay type: functional; conditions: time 5 hrs
Streptococcus pyogenes = experiment: Antibacterial activity against Streptococcus pyogenes ATCC 19615 incubated for 18 hrs by agar dilution method; assay type: functional
Mus musculus [29] = experiment: Analgesic activity in albino mouse assessed as forepaw licking/jumping latency time at 10 mg/kg, ip measured after 30 mins by hot plate test (reference value: 5.02 +/- 0.09 sec); assay type: functional; conditions: 0.5 h
Rattus norvegicus [30] = experiment: Antiinflammatory activity in Wistar rat model of carrageenan-induced paw edema assessed as reduction in thickness of paw edema at 10 mg/kg, ip pretreated for 1 hr followed by carrageenan challenge and measured after 2 hrs (reference value: 2.06 +/-0.09 mm); assay type: functional; conditions: time 3 hrs
Salmonella typhimurium = experiment: Antibacterial activity against Salmonella typhimurium ATCC 19430 incubated for 18 hrs by agar dilution assay; assay type: functional, Salmonella enterica subsp. enterica serovar Typhimurium; conditions: Salmonella enterica
Rattus norvegicus [31] = experiment: Antiinflammatory activity in Wistar rat model of carrageenan-induced paw edema assessed as reduction in thickness of paw edema at 10 mg/kg, ip pretreated for 1 hr followed by carrageenan challenge and measured after 4 hrs (reference value: 1.40 +/-0.10 mm); assay type: functional; conditions: time 5 hrs
Pseudomonas aeruginosa = experiment: Antibacterial activity against Pseudomonas aeruginosa ATCC 27853 incubated for 18 hrs by agar dilution assay; assay type: functional
[32] = Ulcerogenic activity in fasted albino mouse assessed as average severity of ulcers in gastric mucosa at 10 mg/kg, po for 3 days (reference value: 0); assay type: toxicity, organism-based; conditions: in vivo, 72 h, time 3 day

Row | SMILES | Activity (Rattus norvegicus [1]) | Activity (Mus musculus [2]) | Activity (Peritoneal macrophage [3]) | MIC (Staphylococcus aureus) | Activity (Mus musculus [4]) | Activity (Rattus norvegicus [5]) | Activity (Mus musculus [6]) | viability at 10 µM (Splenocyte [7]) | Activity (Peritoneal macrophage [8]) | Activity (Mus musculus [9]) | Activity (Mus musculus [10]) | Activity [11] | Activity (Rattus norvegicus [12]) | Activity_index (Splenocyte [13]) | Time (Mus musculus [14]) | Activity (Mus musculus [15]) | MIC (Candida albicans) | Activity [16] | Activity (Mus musculus [17]) | Time (Mus musculus [18]) | also measured
1 | COc1cc(/C=C/C(=O)/C=C(O)/C=C/c2ccc(OC(=O)[C@@H](CCSC)NC(=O)OCc3ccccc3)c(OC)c2)ccc1OC(=O)[C@@H](CCSC)NC(=O)OCc1ccccc1 | 0.08 mm | 79.4% | 16.16 µM | 0.125 µg/mL and 0.139 µM | 59.1% | 0.51 mm | 34.8 | 88.5% | 40.84% | 29.1% | 78.6% | 0% | 0.27 mm | 1.37 | 4.88 s | 187.1% | 0.125 µg/mL and 0.139 µM | Non-Toxic | 17.9% | 5.44 s | inhibition in vivo at 10 mg/kg (Rattus norvegicus [19]): 80%; inhibition in vivo at 10 mg/kg (Rattus norvegicus [20]): 90%; UI [21]: 0; inhibition in vivo at 10 mg/kg (Rattus norvegicus [22]): 85%; inhibition in vivo at 10 mg/kg (Rattus norvegicus [23]): 108%; Activity [24]: 0; inhibition in vivo at 10 mg/kg (Rattus norvegicus [25]): 79%; Time (Mus musculus [26]): 4.68 s; Activity (Mus musculus [27]): 9.2%; inhibition in vivo at 10 mg/kg (Rattus norvegicus [28]): 94%; MIC (Streptococcus pyogenes): 0.125 µg/mL and 0.139 µM; Time (Mus musculus [29]): 5.48 s; Activity (Rattus norvegicus [30]): 0.41 mm; MIC (Salmonella typhimurium): 0.5 µg/mL and 0.556 µM; Activity (Rattus norvegicus [31]): 0.08 mm; MIC (Pseudomonas aeruginosa): 1 µg/mL and 1.11 µM; Activity [32]: 0
2 | COc1cc(/C=C/C(=O)/C=C(O)/C=C/c2ccc(OC(=O)[C@H](CCSC)NC(=O)OCc3ccccc3)c(OC)c2)ccc1OC(=O)[C@H](CCSC)NC(=O)OCc1ccccc1 | 0.05 mm | 34.6% | 15.17 µM | 0.125 µg/mL and 0.139 µM | 15.2% | 0.58 mm | 16.5 | 99.3% | 44.44% | 9.2% | 21.4% | 3.33% | 0.25 mm | 1.22 | 3.66 s | 51% | 2 µg/mL and 2.23 µM | Non-Toxic | 61.1% | 3.94 s | inhibition in vivo at 10 mg/kg (Rattus norvegicus [19]): 80%; inhibition in vivo at 10 mg/kg (Rattus norvegicus [20]): 94%; UI [21]: 3.99; inhibition in vivo at 10 mg/kg (Rattus norvegicus [22]): 86%; inhibition in vivo at 10 mg/kg (Rattus norvegicus [23]): 101%; Activity [24]: 0.33; inhibition in vivo at 10 mg/kg (Rattus norvegicus [25]): 76%; Time (Mus musculus [26]): 3.18 s; Activity (Mus musculus [27]): 6%; inhibition in vivo at 10 mg/kg (Rattus norvegicus [28]): 88%; MIC (Streptococcus pyogenes): 0.125 µg/mL and 0.139 µM; Time (Mus musculus [29]): 5.32 s; Activity (Rattus norvegicus [30]): 0.41 mm; MIC (Salmonella typhimurium): 0.125 µg/mL and 0.139 µM; Activity (Rattus norvegicus [31]): 0.17 mm; MIC (Pseudomonas aeruginosa): 0.125 µg/mL and 0.139 µM; Activity [32]: 0.33
